The values below come from ChEMBL document CHEMBL5036349, “Development of potent dual PDK1/AurA kinase inhibitors for cancer therapy: Lead-optimization, structural insights, and ADME-Tox profile” (Eur J Med Chem, 2021).

Where only a bound is given, the exact number is not on record here.

Sequence of {'v': 'CYP3A4', 'o': 'p', 'q': 'Inhibition of CYP3A4 (unknown origin)'} (P08684 whole entry): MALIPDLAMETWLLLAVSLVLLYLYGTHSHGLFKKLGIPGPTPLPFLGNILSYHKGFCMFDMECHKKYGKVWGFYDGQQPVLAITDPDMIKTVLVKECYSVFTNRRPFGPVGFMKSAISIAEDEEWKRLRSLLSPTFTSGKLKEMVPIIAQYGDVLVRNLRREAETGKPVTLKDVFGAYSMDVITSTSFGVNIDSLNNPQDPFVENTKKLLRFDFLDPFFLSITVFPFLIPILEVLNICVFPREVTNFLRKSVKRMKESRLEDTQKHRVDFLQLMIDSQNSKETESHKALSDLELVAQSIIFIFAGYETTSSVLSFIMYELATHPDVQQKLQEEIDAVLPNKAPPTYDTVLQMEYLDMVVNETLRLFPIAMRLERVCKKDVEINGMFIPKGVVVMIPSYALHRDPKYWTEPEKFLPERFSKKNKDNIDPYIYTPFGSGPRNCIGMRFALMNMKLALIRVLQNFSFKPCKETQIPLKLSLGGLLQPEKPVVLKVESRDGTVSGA
Sequence of Aurora kinase B (Homo sapiens) (Q96GD4 whole entry): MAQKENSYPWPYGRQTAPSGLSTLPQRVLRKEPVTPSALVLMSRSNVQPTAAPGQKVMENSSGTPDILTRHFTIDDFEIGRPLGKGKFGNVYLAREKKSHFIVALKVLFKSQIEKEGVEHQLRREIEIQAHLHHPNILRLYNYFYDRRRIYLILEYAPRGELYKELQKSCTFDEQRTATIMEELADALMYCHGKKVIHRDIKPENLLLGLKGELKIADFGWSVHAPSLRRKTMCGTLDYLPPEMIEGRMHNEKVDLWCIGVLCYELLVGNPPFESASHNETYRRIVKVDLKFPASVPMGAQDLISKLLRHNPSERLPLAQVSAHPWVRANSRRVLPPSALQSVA
Sequence of 3',5'-cyclic-AMP phosphodiesterase 4C (Homo sapiens) (Q08493 whole entry): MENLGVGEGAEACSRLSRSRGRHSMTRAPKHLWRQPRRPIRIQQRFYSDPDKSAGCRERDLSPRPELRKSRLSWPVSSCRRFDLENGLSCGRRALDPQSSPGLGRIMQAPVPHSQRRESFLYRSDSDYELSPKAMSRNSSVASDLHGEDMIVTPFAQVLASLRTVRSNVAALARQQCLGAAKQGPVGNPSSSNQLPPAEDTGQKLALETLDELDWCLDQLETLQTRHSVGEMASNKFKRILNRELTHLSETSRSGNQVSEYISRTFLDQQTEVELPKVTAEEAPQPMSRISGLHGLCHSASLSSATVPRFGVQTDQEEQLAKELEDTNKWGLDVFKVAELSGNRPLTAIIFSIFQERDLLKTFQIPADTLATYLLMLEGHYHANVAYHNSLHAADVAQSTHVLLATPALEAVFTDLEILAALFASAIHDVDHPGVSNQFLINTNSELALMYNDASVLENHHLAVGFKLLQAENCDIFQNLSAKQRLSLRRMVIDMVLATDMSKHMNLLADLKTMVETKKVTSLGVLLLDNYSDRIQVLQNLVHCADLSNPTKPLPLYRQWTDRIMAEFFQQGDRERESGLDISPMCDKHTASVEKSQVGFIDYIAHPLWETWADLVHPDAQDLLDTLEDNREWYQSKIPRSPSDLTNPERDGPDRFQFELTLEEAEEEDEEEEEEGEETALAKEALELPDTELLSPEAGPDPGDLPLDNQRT
Sequence of {'v': 'CYP2C9', 'o': 'p', 'q': 'Inhibition of CYP2C9 (unknown origin)'} (P11712 whole entry): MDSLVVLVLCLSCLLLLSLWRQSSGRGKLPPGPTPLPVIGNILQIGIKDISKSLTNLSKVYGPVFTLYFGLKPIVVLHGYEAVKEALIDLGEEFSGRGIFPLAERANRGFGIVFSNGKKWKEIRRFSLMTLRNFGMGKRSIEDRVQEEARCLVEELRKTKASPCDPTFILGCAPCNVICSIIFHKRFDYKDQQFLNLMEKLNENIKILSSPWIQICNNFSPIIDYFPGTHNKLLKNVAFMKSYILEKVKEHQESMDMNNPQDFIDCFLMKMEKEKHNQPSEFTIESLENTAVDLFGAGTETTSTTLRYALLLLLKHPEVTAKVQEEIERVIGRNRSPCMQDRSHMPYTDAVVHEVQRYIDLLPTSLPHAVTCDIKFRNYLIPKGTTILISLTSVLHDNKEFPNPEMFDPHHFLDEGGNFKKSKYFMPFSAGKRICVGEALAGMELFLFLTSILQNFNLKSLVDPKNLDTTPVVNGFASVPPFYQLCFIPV

For the first data set, the target named is T1, Histone deacetylase 8 (Homo sapiens) (UniProt Q9BY41).
T1 sequence (whole entry): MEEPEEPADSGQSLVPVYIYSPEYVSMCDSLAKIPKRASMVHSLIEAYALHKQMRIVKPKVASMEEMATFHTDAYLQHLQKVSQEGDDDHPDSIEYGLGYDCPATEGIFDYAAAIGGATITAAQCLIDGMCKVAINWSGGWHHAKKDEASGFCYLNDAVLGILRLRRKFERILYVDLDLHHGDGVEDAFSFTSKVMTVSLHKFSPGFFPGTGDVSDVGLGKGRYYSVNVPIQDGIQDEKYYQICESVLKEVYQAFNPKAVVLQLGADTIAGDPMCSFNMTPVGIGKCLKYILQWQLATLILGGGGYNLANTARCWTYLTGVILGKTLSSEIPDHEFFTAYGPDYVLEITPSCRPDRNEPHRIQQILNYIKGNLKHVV
Put plainly: Inhibition on human recombinant HDAC8 at 10 uM measured after 20 min by luminescence glo assay.
Conditions: not given
Consider `Cc1ccc(C(=O)NCC(=O)Nc2ccc3c(c2)/C(=C/c2cnc[nH]2)C(=O)N3)c(=O)n1Cc1ccc(F)c(F)c1`, for which the inhibition was < 30%.

Take `O=C(CCNC(=O)c1cccn(Cc2ccc(F)c(F)c2)c1=O)Nc1ccc2c(c1)/C(=C/c1cnc[nH]1)C(=O)N2`: the inhibition is < 30%.

For `Cc1c(Br)cc(C(=O)N[C@@H](C(=O)Nc2ccc3c(c2)/C(=C/c2cnc[nH]2)C(=O)N3)c2ccccc2)c(=O)n1Cc1ccc(F)c(F)c1`, the inhibition is < 30%.

As for `O=C1Nc2ccc(NC(=O)[C@H](NC(=O)c3cccn(Cc4ccc(F)c(F)c4)c3=O)c3ccccc3)cc2/C1=C/c1cnc[nH]1` (stereo in doubt), the inhibition is < 30%.

Another data set deals with HEK293. Put plainly: Cytotoxicity against HEK293 cells at 10 uM measured after 24 to 48 hrs by Cell-titer glo assay relative to control. It counts as cell-based. To be noted: human, hek293, 10 µM, time 24-48 hrs.
Regarding `Cc1ccc(C(=O)NCC(=O)Nc2ccc3c(c2)/C(=C/c2cnc[nH]2)C(=O)N3)c(=O)n1Cc1ccc(F)c(F)c1`, the Activity is < 25%.

On to `O=C(CCNC(=O)c1cccn(Cc2ccc(F)c(F)c2)c1=O)Nc1ccc2c(c1)/C(=C/c1cnc[nH]1)C(=O)N2`, for which the Activity was < 25%.

Take `Cc1c(Br)cc(C(=O)N[C@@H](C(=O)Nc2ccc3c(c2)/C(=C/c2cnc[nH]2)C(=O)N3)c2ccccc2)c(=O)n1Cc1ccc(F)c(F)c1`: the Activity is on record as < 25%.

Take `O=C1Nc2ccc(NC(=O)[C@H](NC(=O)c3cccn(Cc4ccc(F)c(F)c4)c3=O)c3ccccc3)cc2/C1=C/c1cnc[nH]1` (stereo in doubt): the Activity is < 25%.

The next data set has as its target Aurora kinase B (Homo sapiens) (UniProt Q96GD4). Put plainly: Inhibition of Aurora B kinase (unknown origin) at 10 uM in presence of ATP incubated for 30 min followed by addition of kinase glo-reagent measured after 20 mins by Luminescence based plate reader assay relative to control. The settings on record: time 50.0 min.
For `Cc1ccc(C(=O)NCC(=O)Nc2ccc3c(c2)/C(=C/c2cnc[nH]2)C(=O)N3)c(=O)n1Cc1ccc(F)c(F)c1`, the inhibition was < 20%.

As for `O=C(CCNC(=O)c1cccn(Cc2ccc(F)c(F)c2)c1=O)Nc1ccc2c(c1)/C(=C/c1cnc[nH]1)C(=O)N2`, the inhibition is < 20%.

As to `Cc1c(Br)cc(C(=O)N[C@@H](C(=O)Nc2ccc3c(c2)/C(=C/c2cnc[nH]2)C(=O)N3)c2ccccc2)c(=O)n1Cc1ccc(F)c(F)c1`, the inhibition is < 20%.

Take `O=C1Nc2ccc(NC(=O)[C@H](NC(=O)c3cccn(Cc4ccc(F)c(F)c4)c3=O)c3ccccc3)cc2/C1=C/c1cnc[nH]1` (stereo in doubt): the inhibition is < 20%.

The target in another data set is {'v': 'CYP2C19', 'o': 'p', 'q': 'Inhibition of CYP2C19 (unknown origin)'} (Homo sapiens, UniProt P33261). Put plainly: Inhibition of CYP2C19 (unknown origin) at 10 uM pre-incubated for 30 min followed by addition of NADPH and measured after 30 min by Luminescence based plate reader method relative to control. It counts as ADME. The settings on record: time 60 min.
Sequence of {'v': 'CYP2C19', 'o': 'p', 'q': 'Inhibition of CYP2C19 (unknown origin)'} (P33261 whole entry): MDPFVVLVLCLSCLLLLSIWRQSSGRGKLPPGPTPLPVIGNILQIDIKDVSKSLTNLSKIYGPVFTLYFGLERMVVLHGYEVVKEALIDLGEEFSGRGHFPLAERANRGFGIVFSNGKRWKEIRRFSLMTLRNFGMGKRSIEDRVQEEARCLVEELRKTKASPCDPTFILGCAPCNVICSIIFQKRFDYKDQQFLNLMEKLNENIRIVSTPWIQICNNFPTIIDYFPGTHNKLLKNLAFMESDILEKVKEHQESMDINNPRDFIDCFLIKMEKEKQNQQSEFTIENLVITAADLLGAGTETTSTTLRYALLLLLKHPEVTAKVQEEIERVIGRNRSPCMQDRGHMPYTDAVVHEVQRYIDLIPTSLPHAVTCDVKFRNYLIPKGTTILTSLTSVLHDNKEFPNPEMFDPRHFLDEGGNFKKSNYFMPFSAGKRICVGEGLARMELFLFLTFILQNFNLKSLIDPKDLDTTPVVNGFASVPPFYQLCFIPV
Turning to `Cc1ccc(C(=O)NCC(=O)Nc2ccc3c(c2)/C(=C/c2cnc[nH]2)C(=O)N3)c(=O)n1Cc1ccc(F)c(F)c1`, the inhibition at 0.5 h, 10 µM was > 90%.

For `O=C(CCNC(=O)c1cccn(Cc2ccc(F)c(F)c2)c1=O)Nc1ccc2c(c1)/C(=C/c1cnc[nH]1)C(=O)N2`, the inhibition at 0.5 h, 10 µM was > 90%.

`Cc1c(Br)cc(C(=O)N[C@@H](C(=O)Nc2ccc3c(c2)/C(=C/c2cnc[nH]2)C(=O)N3)c2ccccc2)c(=O)n1Cc1ccc(F)c(F)c1`: the inhibition at 0.5 h, 10 µM was < 45%.

The next data set concerns the target T2, Protein deacetylase HDAC6 (Homo sapiens) (UniProt Q9UBN7).
T2 sequence (whole entry): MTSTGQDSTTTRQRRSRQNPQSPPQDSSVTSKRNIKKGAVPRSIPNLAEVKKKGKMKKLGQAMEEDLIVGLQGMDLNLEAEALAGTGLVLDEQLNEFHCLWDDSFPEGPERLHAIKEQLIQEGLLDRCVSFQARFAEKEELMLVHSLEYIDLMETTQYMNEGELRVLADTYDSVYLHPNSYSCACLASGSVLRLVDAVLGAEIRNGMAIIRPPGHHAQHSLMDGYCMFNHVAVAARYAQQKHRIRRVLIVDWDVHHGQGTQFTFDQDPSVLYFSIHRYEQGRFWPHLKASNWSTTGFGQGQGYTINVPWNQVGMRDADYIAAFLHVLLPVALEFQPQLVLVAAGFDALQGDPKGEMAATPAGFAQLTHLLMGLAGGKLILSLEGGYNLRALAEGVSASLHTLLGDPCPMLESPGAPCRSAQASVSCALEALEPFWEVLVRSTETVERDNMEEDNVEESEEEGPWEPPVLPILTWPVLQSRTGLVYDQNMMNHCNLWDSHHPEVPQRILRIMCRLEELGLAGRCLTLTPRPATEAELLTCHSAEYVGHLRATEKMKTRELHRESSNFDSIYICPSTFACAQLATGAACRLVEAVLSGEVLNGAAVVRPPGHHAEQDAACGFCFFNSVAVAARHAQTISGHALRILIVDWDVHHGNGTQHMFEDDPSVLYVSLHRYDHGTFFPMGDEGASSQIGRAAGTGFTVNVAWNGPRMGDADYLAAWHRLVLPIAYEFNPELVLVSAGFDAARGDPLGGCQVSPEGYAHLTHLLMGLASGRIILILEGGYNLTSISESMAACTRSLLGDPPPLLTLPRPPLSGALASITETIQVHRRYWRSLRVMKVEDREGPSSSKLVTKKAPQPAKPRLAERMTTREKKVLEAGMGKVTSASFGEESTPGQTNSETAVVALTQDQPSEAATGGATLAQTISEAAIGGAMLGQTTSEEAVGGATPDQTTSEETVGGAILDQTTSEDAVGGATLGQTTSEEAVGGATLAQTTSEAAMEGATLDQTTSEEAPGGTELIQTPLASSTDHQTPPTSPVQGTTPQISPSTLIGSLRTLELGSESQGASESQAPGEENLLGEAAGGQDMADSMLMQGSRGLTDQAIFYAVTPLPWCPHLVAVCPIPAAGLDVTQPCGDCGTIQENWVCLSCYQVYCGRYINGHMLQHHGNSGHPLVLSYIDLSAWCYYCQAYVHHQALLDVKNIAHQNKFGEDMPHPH
Put plainly: Inhibition on human recombinant HDAC6 at 10 uM measured after 20 min by luminescence glo assay.
Conditions: not given
Turning to `Cc1ccc(C(=O)NCC(=O)Nc2ccc3c(c2)/C(=C/c2cnc[nH]2)C(=O)N3)c(=O)n1Cc1ccc(F)c(F)c1`, the inhibition was < 30%.

Take `O=C(CCNC(=O)c1cccn(Cc2ccc(F)c(F)c2)c1=O)Nc1ccc2c(c1)/C(=C/c1cnc[nH]1)C(=O)N2`: the inhibition is < 30%.

For the compound `Cc1c(Br)cc(C(=O)N[C@@H](C(=O)Nc2ccc3c(c2)/C(=C/c2cnc[nH]2)C(=O)N3)c2ccccc2)c(=O)n1Cc1ccc(F)c(F)c1`, the inhibition was < 30%.

Take `O=C1Nc2ccc(NC(=O)[C@H](NC(=O)c3cccn(Cc4ccc(F)c(F)c4)c3=O)c3ccccc3)cc2/C1=C/c1cnc[nH]1` (stereo in doubt): the inhibition was < 30%.

A further data set has as its target {'v': 'CYP3A4', 'o': 'p', 'q': 'Inhibition of CYP3A4 (unknown origin)'} (Homo sapiens, UniProt P08684). Description: Inhibition of CYP3A4 (unknown origin) at 10 uM pre-incubated for 30 min followed by addition of NADPH and measured after 30 min by Luminescence based plate reader method relative to control. It counts as ADME. The settings on record: time 60 min.
With `Cc1ccc(C(=O)NCC(=O)Nc2ccc3c(c2)/C(=C/c2cnc[nH]2)C(=O)N3)c(=O)n1Cc1ccc(F)c(F)c1`, the inhibition at 0.5 h, 10 µM is > 90%.

As for `O=C(CCNC(=O)c1cccn(Cc2ccc(F)c(F)c2)c1=O)Nc1ccc2c(c1)/C(=C/c1cnc[nH]1)C(=O)N2`, the inhibition at 0.5 h, 10 µM was > 90%.

Regarding `Cc1c(Br)cc(C(=O)N[C@@H](C(=O)Nc2ccc3c(c2)/C(=C/c2cnc[nH]2)C(=O)N3)c2ccccc2)c(=O)n1Cc1ccc(F)c(F)c1`, the inhibition at 0.5 h, 10 µM is < 45%.

Another data set addresses 3',5'-cyclic-AMP phosphodiesterase 4C (Homo sapiens) (UniProt Q08493). Put plainly: Inhibition of PDE4C1 (unknown origin) at 10 uM incubated for 60 mins followed by addition of binding agent and measured after 20 mins by Fluorescence Polarization assay relative to control. The settings on record: time 80.0 min.
Turning to `Cc1ccc(C(=O)NCC(=O)Nc2ccc3c(c2)/C(=C/c2cnc[nH]2)C(=O)N3)c(=O)n1Cc1ccc(F)c(F)c1`, the inhibition is < 30%.

In the case of `O=C(CCNC(=O)c1cccn(Cc2ccc(F)c(F)c2)c1=O)Nc1ccc2c(c1)/C(=C/c1cnc[nH]1)C(=O)N2`, the inhibition is < 30%.

In the case of `Cc1c(Br)cc(C(=O)N[C@@H](C(=O)Nc2ccc3c(c2)/C(=C/c2cnc[nH]2)C(=O)N3)c2ccccc2)c(=O)n1Cc1ccc(F)c(F)c1`, the inhibition is < 30%.

`O=C1Nc2ccc(NC(=O)[C@H](NC(=O)c3cccn(Cc4ccc(F)c(F)c4)c3=O)c3ccccc3)cc2/C1=C/c1cnc[nH]1` (stereo in doubt): the inhibition was < 30%.

A further data set addresses {'v': 'CYP2C9', 'o': 'p', 'q': 'Inhibition of CYP2C9 (unknown origin)'} (Homo sapiens, UniProt P11712). Put plainly: Inhibition of CYP2C9 (unknown origin) at 10 uM pre-incubated for 30 min followed by addition of NADPH and measured after 30 min by Luminescence based plate reader method relative to control. To be noted: time 60 min. It counts as ADME.
As to `Cc1ccc(C(=O)NCC(=O)Nc2ccc3c(c2)/C(=C/c2cnc[nH]2)C(=O)N3)c(=O)n1Cc1ccc(F)c(F)c1`, the inhibition at 0.5 h, 10 µM is > 90%.

Take `O=C(CCNC(=O)c1cccn(Cc2ccc(F)c(F)c2)c1=O)Nc1ccc2c(c1)/C(=C/c1cnc[nH]1)C(=O)N2`: the inhibition at 0.5 h, 10 µM is > 90%.

`Cc1c(Br)cc(C(=O)N[C@@H](C(=O)Nc2ccc3c(c2)/C(=C/c2cnc[nH]2)C(=O)N3)c2ccccc2)c(=O)n1Cc1ccc(F)c(F)c1`: the inhibition at 0.5 h, 10 µM was < 45%.

The target of another data set is T3, {'v': 'CYP1A2', 'o': 'p', 'q': 'Inhibition of CYP1A2 (unknown origin)'} (Homo sapiens, UniProt P05177).
T3 sequence (P05177 whole entry): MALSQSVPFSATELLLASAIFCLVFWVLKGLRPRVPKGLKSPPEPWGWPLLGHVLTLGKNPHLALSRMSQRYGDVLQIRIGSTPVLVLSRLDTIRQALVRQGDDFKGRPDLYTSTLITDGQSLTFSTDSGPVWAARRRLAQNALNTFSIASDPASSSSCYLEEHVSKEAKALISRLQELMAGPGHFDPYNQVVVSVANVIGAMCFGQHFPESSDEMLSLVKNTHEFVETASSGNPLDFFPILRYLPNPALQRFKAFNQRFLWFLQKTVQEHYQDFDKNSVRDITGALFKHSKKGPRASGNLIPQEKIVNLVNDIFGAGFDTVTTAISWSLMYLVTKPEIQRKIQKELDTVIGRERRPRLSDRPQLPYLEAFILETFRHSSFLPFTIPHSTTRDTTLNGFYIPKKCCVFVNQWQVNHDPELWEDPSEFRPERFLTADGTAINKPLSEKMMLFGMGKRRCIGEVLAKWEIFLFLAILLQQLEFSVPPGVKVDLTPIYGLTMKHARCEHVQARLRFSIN
Put plainly: Inhibition of CYP1A2 (unknown origin) at 10 uM pre-incubated for 30 min followed by addition of NADPH and measured after 30 min by Luminescence based plate reader method relative to control. To be noted: time 60 min. It counts as ADME.
Turning to `Cc1ccc(C(=O)NCC(=O)Nc2ccc3c(c2)/C(=C/c2cnc[nH]2)C(=O)N3)c(=O)n1Cc1ccc(F)c(F)c1`, the inhibition at 0.5 h, 10 µM was > 90%.

As to `O=C(CCNC(=O)c1cccn(Cc2ccc(F)c(F)c2)c1=O)Nc1ccc2c(c1)/C(=C/c1cnc[nH]1)C(=O)N2`, the inhibition at 0.5 h, 10 µM was > 90%.

Regarding `Cc1c(Br)cc(C(=O)N[C@@H](C(=O)Nc2ccc3c(c2)/C(=C/c2cnc[nH]2)C(=O)N3)c2ccccc2)c(=O)n1Cc1ccc(F)c(F)c1`, the inhibition at 0.5 h, 10 µM is < 45%.
